Measurements taken from ChEMBL document CHEMBL3045984, “Resistance to HPPD-inhibiting herbicides in a population of waterhemp (Amaranthus tuberculatus) from Illinois, United States” (2011).

How the values were obtained:
Format in all cases: functional
Amaranthus tuberculatus [1] = experiment: Herbicidal activity against Amaranthus tuberculatus biotype WCS assessed as visual injury at 92 g/ha applied as spray after 21 days under green house conditions relative to untreated control
Amaranthus tuberculatus [2] = experiment: Herbicidal activity against Amaranthus tuberculatus biotype MCR 16 assessed as visual injury at 92 g/ha applied as spray after 21 days under green house conditions relative to untreated control
Amaranthus tuberculatus [3] = experiment: Herbicidal activity against Amaranthus tuberculatus biotype MCR 16 assessed as visual injury at 92 g/ha applied as spray after 14 days under green house conditions relative to untreated control
Amaranthus tuberculatus [4] = experiment: Herbicidal activity against Amaranthus tuberculatus biotype MCR 12 assessed as visual injury at 92 g/ha applied as spray after 7 days under green house conditions relative to untreated control
Amaranthus tuberculatus [5] = experiment: Herbicidal activity against Amaranthus tuberculatus biotype WCS assessed as visual injury at 92 g/ha applied as spray after 7 days under green house conditions relative to untreated control
Amaranthus tuberculatus [6] = experiment: Herbicidal activity against Amaranthus tuberculatus biotype MCR 12 assessed as visual injury at 92 g/ha applied as spray after 21 days under green house conditions relative to untreated control
Amaranthus tuberculatus [7] = experiment: Herbicidal activity against Amaranthus tuberculatus biotype WCS assessed as visual injury at 92 g/ha applied as spray after 14 days under green house conditions relative to untreated control
Amaranthus tuberculatus [8] = experiment: Herbicidal activity against Amaranthus tuberculatus biotype ACR assessed as visual injury at 92 g/ha applied as spray after 7 days under green house conditions relative to untreated control
Amaranthus tuberculatus [9] = experiment: Herbicidal activity against Amaranthus tuberculatus biotype MCR 15 assessed as visual injury at 92 g/ha applied as spray after 7 days under green house conditions relative to untreated control
Amaranthus tuberculatus [10] = experiment: Herbicidal activity against Amaranthus tuberculatus biotype MCR 15 assessed as visual injury at 92 g/ha applied as spray after 21 days under green house conditions relative to untreated control
Amaranthus tuberculatus [11] = experiment: Herbicidal activity against Amaranthus tuberculatus biotype MCR 12 assessed as visual injury at 92 g/ha applied as spray after 14 days under green house conditions relative to untreated control
Amaranthus tuberculatus [12] = experiment: Herbicidal activity against Amaranthus tuberculatus biotype ACR assessed as visual injury at 92 g/ha applied as spray after 14 days under green house conditions relative to untreated control
Amaranthus tuberculatus [13] = experiment: Herbicidal activity against Amaranthus tuberculatus biotype ACR assessed as visual injury at 92 g/ha applied as spray after 21 days under green house conditions relative to untreated control
Amaranthus tuberculatus [14] = experiment: Herbicidal activity against Amaranthus tuberculatus biotype MCR 16 assessed as visual injury at 92 g/ha applied as spray after 7 days under green house conditions relative to untreated control
Amaranthus tuberculatus [15] = experiment: Herbicidal activity against Amaranthus tuberculatus biotype MCR 15 assessed as visual injury at 92 g/ha applied as spray after 14 days under green house conditions relative to untreated control
Amaranthus tuberculatus [16] = experiment: Herbicidal activity against Amaranthus tuberculatus biotype MCR 16 assessed as visual injury at 18 g/ha applied as spray after 7 days under green house conditions relative to untreated control
Amaranthus tuberculatus [17] = experiment: Herbicidal activity against Amaranthus tuberculatus biotype ACR assessed as visual injury at 18 g/ha applied as spray after 21 days under green house conditions relative to untreated control
Amaranthus tuberculatus [18] = experiment: Herbicidal activity against Amaranthus tuberculatus biotype ACR assessed as visual injury at 18 g/ha applied as spray after 7 days under green house conditions relative to untreated control
Amaranthus tuberculatus [19] = experiment: Herbicidal activity against Amaranthus tuberculatus biotype WCS assessed as visual injury at 18 g/ha applied as spray after 14 days under green house conditions relative to untreated control
Amaranthus tuberculatus [20] = experiment: Herbicidal activity against Amaranthus tuberculatus biotype MCR 12 assessed as visual injury at 18 g/ha applied as spray after 14 days under green house conditions relative to untreated control
Amaranthus tuberculatus [21] = experiment: Herbicidal activity against Amaranthus tuberculatus biotype WCS assessed as visual injury at 18 g/ha applied as spray after 7 days under green house conditions relative to untreated control
Amaranthus tuberculatus [22] = experiment: Herbicidal activity against Amaranthus tuberculatus biotype MCR 15 assessed as visual injury at 18 g/ha applied as spray after 14 days under green house conditions relative to untreated control
Amaranthus tuberculatus [23] = experiment: Herbicidal activity against Amaranthus tuberculatus biotype WCS assessed as visual injury at 18 g/ha applied as spray after 21 days under green house conditions relative to untreated control
Amaranthus tuberculatus [24] = experiment: Herbicidal activity against Amaranthus tuberculatus biotype MCR 15 assessed as visual injury at 18 g/ha applied as spray after 21 days under green house conditions relative to untreated control
Amaranthus tuberculatus [25] = experiment: Herbicidal activity against Amaranthus tuberculatus biotype MCR 16 assessed as visual injury at 18 g/ha applied as spray after 14 days under green house conditions relative to untreated control
Amaranthus tuberculatus [26] = experiment: Herbicidal activity against Amaranthus tuberculatus biotype MCR 16 assessed as visual injury at 18 g/ha applied as spray after 21 days under green house conditions relative to untreated control
Amaranthus tuberculatus [27] = experiment: Herbicidal activity against Amaranthus tuberculatus biotype MCR 15 assessed as visual injury at 18 g/ha applied as spray after 7 days under green house conditions relative to untreated control
Amaranthus tuberculatus [28] = experiment: Herbicidal activity against Amaranthus tuberculatus biotype MCR 12 assessed as visual injury at 18 g/ha applied as spray after 7 days under green house conditions relative to untreated control
Amaranthus tuberculatus [29] = experiment: Herbicidal activity against Amaranthus tuberculatus biotype MCR 12 assessed as visual injury at 18 g/ha applied as spray after 21 days under green house conditions relative to untreated control
Amaranthus tuberculatus [30] = experiment: Herbicidal activity against Amaranthus tuberculatus biotype ACR assessed as visual injury at 18 g/ha applied as spray after 14 days under green house conditions relative to untreated control

CS(=O)(=O)c1ccc(C(=O)C2C(=O)CCCC2=O)c(Cl)c1COCC(F)(F)F [TEMBOTRIONE]
Activity (Amaranthus tuberculatus [1]): 100%
Activity (Amaranthus tuberculatus [2]): 31%
Activity (Amaranthus tuberculatus [3]): 46%
Activity (Amaranthus tuberculatus [4]): 40%
Activity (Amaranthus tuberculatus [5]): 84%
Activity (Amaranthus tuberculatus [6]): 17%
Activity (Amaranthus tuberculatus [7]): 96%
Activity (Amaranthus tuberculatus [8]): 56%
Activity (Amaranthus tuberculatus [9]): 48%
Activity (Amaranthus tuberculatus [10]): 35%
Activity (Amaranthus tuberculatus [11]): 30%
Activity (Amaranthus tuberculatus [12]): 91%
Activity (Amaranthus tuberculatus [13]): 94%
Activity (Amaranthus tuberculatus [14]): 43%
Activity (Amaranthus tuberculatus [15]): 34%

Cc1c(C(=O)c2cnn(C)c2O)ccc(S(C)(=O)=O)c1C1=NOCC1 [TOPRAMEZONE]
Activity (Amaranthus tuberculatus [16]): 54%
Activity (Amaranthus tuberculatus [17]): 96%
Activity (Amaranthus tuberculatus [18]): 69%
Activity (Amaranthus tuberculatus [19]): 96%
Activity (Amaranthus tuberculatus [20]): 42%
Activity (Amaranthus tuberculatus [21]): 84%
Activity (Amaranthus tuberculatus [22]): 59%
Activity (Amaranthus tuberculatus [23]): 100%
Activity (Amaranthus tuberculatus [24]): 42%
Activity (Amaranthus tuberculatus [25]): 64%
Activity (Amaranthus tuberculatus [26]): 58%
Activity (Amaranthus tuberculatus [27]): 52%
Activity (Amaranthus tuberculatus [28]): 41%
Activity (Amaranthus tuberculatus [29]): 36%
Activity (Amaranthus tuberculatus [30]): 93%
